# Data from patent US20260070945A1, “MACROCYCLIC IMMUNOMODULATORS” (Bristol-Myers Squibb Company, priority 2022, published 2026).
# Where a SMILES comes first, the peptide text is derived from it. Bridges are numbered along the chain shown (N, C = ends). [ ]: non-standard residue; d: D form. The star is where a group is joined. ξ: configuration not given here. Phe(4-CH2CH2COOH) = N[C@@H](Cc1ccc(CCC(=O)O)cc1)C(=O)O; Phe(3-CF3) = N[C@@H](Cc1cccc(C(F)(F)F)c1)C(=O)O; Phe(4-COOH) = N[C@@H](Cc1ccc(C(=O)O)cc1)C(=O)O; Bip = N[C@@H](Cc1ccc(-c2ccccc2)cc1)C(=O)O; NH(CH2)14COOH = O=C(O)CCCCCCCCCCCCCCN*; Phe(3-Me) = Cc1cccc(C[C@H](N)C(=O)O)c1; NH(CH2)12COOH = O=C(O)CCCCCCCCCCCCN*; Val(3-OH) = CC(C)(O)[C@H](N)C(=O)O; Cha = N[C@@H](CC1CCCCC1)C(=O)O; Thr(3ξ) = CC(O)[C@H](N)C(=O)O; dDab = NCC[C@@H](N)C(=O)O; Carboxymethyl = O=C(O)C*; NMeA = CN[C@@H](C)C(=O)O; Aun = NCCCCCCCCCCC(=O)O; Dab = NCC[C@H](N)C(=O)O; AEEA = NCCOCCOCC(=O)O
# Target: T1, PD-1/PD-L1 interaction (PE-labeled human PD-L1-Ig binding to Jurkat cell line over-expressing human PD-1) (Homo sapiens, UniProt Q15116)
# T1 construct: expressed in transfected cells; host or cells: Jurkat
# Assay: Jurkat-PD-1 Cell Binding High-Content Screening Assay (CBA)
# Conditions: PE-labeled PD-L1-Ig 20 nM final, Jurkat-hPD-1 cells; read-out: Jurkat HPD1 PDL1 IC50
# How it was run: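 Cells 8×10^3/well, DMEM + 10% FCS; cpd 2 h, 37 °C; PE–PD-L1-Ig 20 nM final, 1 h; PFA fix + Hoechst 33342, 3× dPBS wash; high-content imager.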
# T1 sequence (Q15116 25-288): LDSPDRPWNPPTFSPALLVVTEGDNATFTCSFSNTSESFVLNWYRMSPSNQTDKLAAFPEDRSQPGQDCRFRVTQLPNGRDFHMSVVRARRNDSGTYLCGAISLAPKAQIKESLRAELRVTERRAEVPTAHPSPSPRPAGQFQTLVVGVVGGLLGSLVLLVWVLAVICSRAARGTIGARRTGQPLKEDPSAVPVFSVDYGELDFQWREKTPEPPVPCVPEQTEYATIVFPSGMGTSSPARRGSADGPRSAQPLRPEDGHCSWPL
row,IC50 [µM],SMILES
1,0.0033,CC(=O)NCCCC[C@@H]1NC(=O)[C@H](C(C)(C)O)NC(=O)[C@H](CC2CCCCC2)NC(=O)[C@H](CCN)NC(=O)[C@@H](CC(C)C)NC(=O)[C@H](C)N(C)C(=O)[C@H](CCC(N)=O)NC(=O)[C@H](Cc2ccc(-c3ccccc3)cc2)NC(=O)[C@H](Cc2ccc(CCC(=O)O)cc2)NC(=O)[C@H](Cc2cccc(C(F)(F)F)c2)NC(=O)[C@H](CC(=O)O)NC(=O)[C@H](Cc2ccc(OCC(=O)O)cc2)NC(=O)[C@H](Cc2ccc(OCC(=O)O)cc2)NC(=O)CSC[C@@H](C(=O)N[C@@H](CCN)C(=O)NCCOCCOCC(=O)NCCCCCCCCCCC(=O)O)NC1=O [Example 2597] ({CH2CO}-Y(Carboxymethyl)Y(Carboxymethyl)D[Phe(3-CF3)][Phe(4-CH2CH2COOH)][Bip]Q[NMeA][dL][Dab][Cha][Val(3-OH)]K(Ac)C[Dab][AEEA][Aun]-OH; thioether N-14)
2,0.0028,CC(=O)NCCCC[C@@H]1NC(=O)[C@H](C(C)C)NC(=O)[C@H](CC2CCCCC2)NC(=O)[C@H](CCN)NC(=O)[C@@H](CC(C)C)NC(=O)[C@H](C)N(C)C(=O)[C@H](CCC(N)=O)NC(=O)[C@H](Cc2ccc(-c3ccccc3)cc2)NC(=O)[C@H](Cc2ccc(C(=O)O)cc2)NC(=O)[C@H](Cc2cccc(C(F)(F)F)c2)NC(=O)[C@H](CC(=O)O)NC(=O)[C@H](Cc2ccc(OCC(=O)O)cc2)NC(=O)[C@H](Cc2ccc(OCC(=O)O)cc2)NC(=O)CSC[C@@H](C(=O)N[C@@H](CCN)C(=O)NCCOCCOCC(=O)NCCCCCCCCCCC(=O)O)NC1=O [Example 2598] ({CH2CO}-Y(Carboxymethyl)Y(Carboxymethyl)D[Phe(3-CF3)][Phe(4-COOH)][Bip]Q[NMeA][dL][Dab][Cha]VK(Ac)C[Dab][AEEA][Aun]-OH; thioether N-14)
3,0.0282,CC(=O)NCCCC[C@@H]1NC(=O)[C@H](C(C)(C)O)NC(=O)[C@H](CC2CCCCC2)NC(=O)[C@H](CCN)NC(=O)[C@@H](CC(C)C)NC(=O)[C@H](C)N(C)C(=O)[C@H](CCC(N)=O)NC(=O)[C@H](Cc2ccc(-c3ccccc3)cc2)NC(=O)[C@H](Cc2ccc(C(=O)O)cc2)NC(=O)[C@H](Cc2cccc(C(F)(F)F)c2)NC(=O)[C@H](CC(=O)O)NC(=O)[C@H](Cc2ccc(OCC(=O)O)cc2)NC(=O)[C@H](Cc2ccc(OCC(=O)O)cc2)NC(=O)CSC[C@@H](C(=O)N[C@H](CCN)C(=O)NCCCCCCCCCCCCC(=O)O)NC1=O [Example 2599] ({CH2CO}-Y(Carboxymethyl)Y(Carboxymethyl)D[Phe(3-CF3)][Phe(4-COOH)][Bip]Q[NMeA][dL][Dab][Cha][Val(3-OH)]K(Ac)C[dDab]-{NH(CH2)12COOH}; thioether N-14)
4,0.0055,CC(=O)NCCCC[C@@H]1NC(=O)[C@H](C(C)(C)O)NC(=O)[C@H](CC2CCCCC2)NC(=O)[C@H](CCN)NC(=O)[C@@H](CC(C)C)NC(=O)[C@H](C)N(C)C(=O)[C@H](CCCNC(=N)N)NC(=O)[C@H](Cc2ccc(-c3ccccc3)cc2)NC(=O)[C@H](Cc2ccc(C(=O)O)cc2)NC(=O)[C@H](Cc2cccc(C(F)(F)F)c2)NC(=O)[C@H](CC(=O)O)NC(=O)[C@H](Cc2ccc(OCC(=O)O)cc2)NC(=O)[C@H](Cc2ccc(OCC(=O)O)cc2)NC(=O)CSC[C@@H](C(=O)N[C@@H](CCN)C(=O)NCCCCCCCCCCCCC(=O)O)NC1=O [Example 2600] ({CH2CO}-Y(Carboxymethyl)Y(Carboxymethyl)D[Phe(3-CF3)][Phe(4-COOH)][Bip]R[NMeA][dL][Dab][Cha][Val(3-OH)]K(Ac)C[Dab]-{NH(CH2)12COOH}; thioether N-14)
5,0.192,CC(C)C[C@H]1NC(=O)[C@H](C)N(C)C(=O)[C@H](Cc2ccc(OCC(=O)O)cc2)NC(=O)[C@H](Cc2ccc(-c3ccccc3)cc2)NC(=O)[C@H](Cc2ccc(C(=O)O)cc2)NC(=O)[C@H](Cc2cccc(C(F)(F)F)c2)NC(=O)[C@H](CC(=O)O)NC(=O)[C@H](Cc2ccc(OCC(=O)O)cc2)NC(=O)[C@H](C(C)O)NC(=O)CSC[C@@H](C(=O)N[C@@H](CCN)C(=O)NCCCCCCCCCCCCCCC(=O)O)NC(=O)[C@H](CCC(=O)O)NC(=O)[C@H](C(C)C)NC(=O)[C@H](CC2CCCCC2)NC(=O)[C@H](CCN)NC1=O (stereo partly drawn) [Example 2602] ({CH2CO}-[Thr(3ξ)]Y(Carboxymethyl)D[Phe(3-CF3)][Phe(4-COOH)][Bip]Y(Carboxymethyl)[NMeA][dL][Dab][Cha]VEC[Dab]-{NH(CH2)14COOH}; thioether N-14)
6,0.405,Cc1cccc(C[C@@H]2NC(=O)[C@H](CC(=O)O)NC(=O)[C@H](Cc3ccc(OCC(=O)O)cc3)NC(=O)[C@H](C(C)O)NC(=O)CSC[C@@H](C(=O)N[C@@H](CCN)C(=O)NCCOCCOCC(=O)NCCCCCCCCCCCCCCC(=O)O)NC(=O)[C@H](CCC(=O)O)NC(=O)[C@H](C(C)C)NC(=O)[C@H](CC3CCCCC3)NC(=O)[C@H](CCN)NC(=O)[C@@H](CC(C)C)NC(=O)[C@H](C)N(C)C(=O)[C@H](Cc3ccc(OCC(=O)O)cc3)NC(=O)[C@H](Cc3ccc(-c4ccccc4)cc3)NC(=O)[C@H](Cc3ccc(C(=O)O)cc3)NC2=O)c1 (stereo partly drawn) [Example 2603] ({CH2CO}-[Thr(3ξ)]Y(Carboxymethyl)D[Phe(3-Me)][Phe(4-COOH)][Bip]Y(Carboxymethyl)[NMeA][dL][Dab][Cha]VEC[Dab][AEEA]-{NH(CH2)14COOH}; thioether N-14)
7,0.428,CC(C)C[C@H]1NC(=O)[C@H](C)N(C)C(=O)[C@H](Cc2ccc(C(=O)O)cc2)NC(=O)[C@H](Cc2ccc(-c3ccccc3)cc2)NC(=O)[C@H](Cc2ccc(C(=O)O)cc2)NC(=O)[C@H](Cc2cccc(C(F)(F)F)c2)NC(=O)[C@H](CC(=O)O)NC(=O)[C@H](Cc2ccc(C(=O)O)cc2)NC(=O)[C@H](C(C)O)NC(=O)CSC[C@@H](C(=O)N[C@H](CCN)C(=O)NCCOCCOCC(=O)NCCCCCCCCCCCCC(=O)O)NC(=O)[C@H](CC(=O)O)NC(=O)[C@H](C(C)C)NC(=O)[C@H](CC2CCCCC2)NC(=O)[C@H](CCN)NC1=O (stereo partly drawn) [Example 2604] ({CH2CO}-[Thr(3ξ)][Phe(4-COOH)]D[Phe(3-CF3)][Phe(4-COOH)][Bip][Phe(4-COOH)][NMeA][dL][Dab][Cha]VDC[dDab][AEEA]-{NH(CH2)12COOH}; thioether N-14)
8,0.615,CC(C)C[C@H]1NC(=O)[C@H](C)N(C)C(=O)[C@H](Cc2ccc(C(=O)O)cc2)NC(=O)[C@H](Cc2ccc(-c3ccccc3)cc2)NC(=O)[C@H](Cc2ccc(C(=O)O)cc2)NC(=O)[C@H](Cc2cccc(C(F)(F)F)c2)NC(=O)[C@H](CC(=O)O)NC(=O)[C@H](Cc2ccc(C(=O)O)cc2)NC(=O)[C@H](C(C)O)NC(=O)CSC[C@@H](C(=O)N[C@@H](CCN)C(=O)NCCOCCOCC(=O)NCCCCCCCCCCCCCCC(=O)O)NC(=O)[C@H](CC(=O)O)NC(=O)[C@H](C(C)C)NC(=O)[C@H](CC2CCCCC2)NC(=O)[C@H](CCN)NC1=O (stereo partly drawn) [Example 2605] ({CH2CO}-[Thr(3ξ)][Phe(4-COOH)]D[Phe(3-CF3)][Phe(4-COOH)][Bip][Phe(4-COOH)][NMeA][dL][Dab][Cha]VDC[Dab][AEEA]-{NH(CH2)14COOH}; thioether N-14)
9,0.0489,CC(=O)NCCCC[C@@H]1NC(=O)[C@H](C(C)(C)O)NC(=O)[C@H](CC2CCCCC2)NC(=O)[C@H](CCN)NC(=O)[C@@H](CC(C)C)NC(=O)[C@H](C)N(C)C(=O)[C@H](CCC(N)=O)NC(=O)[C@H](Cc2ccc(-c3ccccc3)cc2)NC(=O)[C@H](Cc2ccc(C(=O)O)cc2)NC(=O)[C@H](Cc2cccc(C(F)(F)F)c2)NC(=O)[C@H](CC(=O)O)NC(=O)[C@H](Cc2ccc(OCC(=O)O)cc2)NC(=O)[C@H](Cc2ccc(OCC(=O)O)cc2)NC(=O)CSC[C@@H](C(=O)N[C@@H](CCN)C(=O)NCCCCCCCCCCCCCCC(=O)O)NC1=O [Example 2606] ({CH2CO}-Y(Carboxymethyl)Y(Carboxymethyl)D[Phe(3-CF3)][Phe(4-COOH)][Bip]Q[NMeA][dL][Dab][Cha][Val(3-OH)]K(Ac)C[Dab]-{NH(CH2)14COOH}; thioether N-14)
10,0.0351,CC(=O)NCCCC[C@@H]1NC(=O)[C@H](C(C)(C)O)NC(=O)[C@H](CC2CCCCC2)NC(=O)[C@H](CCN)NC(=O)[C@@H](CC(C)C)NC(=O)[C@H](C)N(C)C(=O)[C@H](CCC(N)=O)NC(=O)[C@H](Cc2ccc(-c3ccccc3)cc2)NC(=O)[C@H](Cc2ccc(CCC(=O)O)cc2)NC(=O)[C@H](Cc2cccc(C(F)(F)F)c2)NC(=O)[C@H](CC(=O)O)NC(=O)[C@H](Cc2ccc(OCC(=O)O)cc2)NC(=O)[C@H](Cc2ccc(OCC(=O)O)cc2)NC(=O)CSC[C@@H](C(=O)N[C@@H](CCN)C(=O)NCCCCCCCCCCCCCCC(=O)O)NC1=O [Example 2607] ({CH2CO}-Y(Carboxymethyl)Y(Carboxymethyl)D[Phe(3-CF3)][Phe(4-CH2CH2COOH)][Bip]Q[NMeA][dL][Dab][Cha][Val(3-OH)]K(Ac)C[Dab]-{NH(CH2)14COOH}; thioether N-14)
11,0.168,CC(=O)NCCCC[C@@H]1NC(=O)[C@H](C(C)(C)O)NC(=O)[C@H](CC2CCCCC2)NC(=O)[C@H](CCN)NC(=O)[C@@H](CC(C)C)NC(=O)[C@H](C)N(C)C(=O)[C@H](CCC(N)=O)NC(=O)[C@H](Cc2ccc(-c3ccccc3)cc2)NC(=O)[C@H](Cc2ccc(C(=O)O)cc2)NC(=O)[C@H](Cc2cccc(C(F)(F)F)c2)NC(=O)[C@H](CC(=O)O)NC(=O)[C@H](Cc2ccc(OCC(=O)O)cc2)NC(=O)[C@H](Cc2ccc(OCC(=O)O)cc2)NC(=O)CSC[C@@H](C(=O)N[C@@H](CCN)C(=O)NCCOCCOCC(=O)NCCOCCOCC(=O)NCCCCCCCCCCCCCCC(=O)O)NC1=O [Example 2608] ({CH2CO}-Y(Carboxymethyl)Y(Carboxymethyl)D[Phe(3-CF3)][Phe(4-COOH)][Bip]Q[NMeA][dL][Dab][Cha][Val(3-OH)]K(Ac)C[Dab][AEEA][AEEA]-{NH(CH2)14COOH}; thioether N-14)
